US20230243856A1, “IDENTIFYING DIRECT ORAL FACTOR XA INHIBITORS” (Instrumentation Laboratory Company, priority 2022, published 2023)

System: clotting of a test sample, such as whole blood
Experiment: low tissue factor clotting assay with a reagent of diluted tissue factor, CaCl2 and polycation heparin inhibitor (polybrene)
Assay type: biochemical
Conditions: for relationship between TTC and concentration in the sample: range shown between 0 and 500 ng/mL, TTC in seconds; for relationship between TTC and concentration in the sample / concentration in the test sample at a measured clotting time of 400 seconds: FIG. 2 / FIG. 3; for concentration in the test sample at a measured clotting time of 400 seconds: read from plot of TTC versus concentration; for plot of TTC versus concentration with 1 IU UFH or 0 IU UFH in the test sample: test sample with 1 IU unfractionated heparin or no heparin, region 400 / 500 of FIG. 4 / FIG. 5
Source text: The clotting assay uses a reagent to initiate the clotting of a test sample, such as whole blood or a sample derived from whole blood (e.g., plasma). A low tissue factor assay is an example of a clotting assay. […] The low tissue factor assay monitors the clotting of a mixture of the test sample and the reagent and determines clotting parameters based on that clotting. The TTC parameters can be different on different clinical analyzer systems and for different low tissue factor assays. For example, TTC parameter(s) for low tissue factor assays performed using the ROTEM® sigma and the RQTEM® delta systems by Werfen® include clotting time (CT) (where CT is the latency time from adding reagent to sample until the clot starts to form); TTC parameter(s) for low tissue factor assays performed using the TEG® 6s system by Haemonetics® include reaction time (R) and clotting time (CT); and TTC parameter(s) for low tissue factor assays performed using the Quanta® system by the Hemoscnics® system include dot time (CT). An example of the reagent that may be used in the low tissue factor assay (referred to below as “the assay”) to initiate clotting of the test sample includes the following constituents: a diluted tissue factor (“the tissue factor”), calcium chloride (CaCl2), and a heparin inhibitor. The tissue factor activates the extrinsic pathway; the heparin inhibitor reduces or eliminates the sensitivity of the assay to heparin or at least certain concentrations of heparin in the test sample; and CaCl2 recalcifies the sample as required for blood clotting to occur. An example of a type of heparin inhibitor that may be used in the reagent is polycation. An example of a polycation that may be used in the reagent includes, but is not limited to, polybrene. […] In this example, process 100 includes receiving (100a) a test sample having an unknown anti-Xa DOAC at an unknown concentration. The test sample may be received in a diagnostic testing/clinical analyzer system or a manual testing system. The test sample may be any of the types of test samples described herein. The system performs a low tissue factor assay on the test sample. This includes causing the test sample to contact a reagent such as the example reagents described herein. The test sample mixes (100b) with the reagent. The mixing may be performed automatically or manually by physically moving the test sample and the reagent using a mixing element mechanism, e.g., agitation, flow, or the like. The resulting liquid, which is a mixture of the sample and the reagent, begins to clot. The clotting parameters(s), such as TTC, CFT, and/or amplitudes, of clots formed from the liquid may be measured (100c) by the diagnostic testing/clinical analyzer system or manually. The plots of FIGS. 4 to 6, which are described below, are associated with various experiments using the low tissue factor assay and the example reagents described herein containing the tissue factor, CaCl2, and a heparin inhibitor, such as polybrene or other polycation.

Structure (SMILES) | relationship between TTC and concentration in the sample | concentration in the test sample at a measured clotting time of 400 seconds | plot of TTC versus concentration with 1 IU UFH or 0 IU UFH in the test sample
O=C(NC[C@H]1CN(c2ccc(N3CCOCC3=O)cc2)C(=O)O1)c1ccc(Cl)s1 [rivaroxaban] | linear | about 50 ng/mL | substantially linear
COc1ccc(-n2nc(C(N)=O)c3c2C(=O)N(c2ccc(N4CCCCC4=O)cc2)CC3)cc1 [apixaban] | linear | about 160 ng/mL | substantially linear
